Earlier results on one molecule are cited in US20170002035A1, “NOVEL CRYSTALLINE FORMS OF AN ANTIVIRAL BENZIMIDAZOLE COMPOUND” (GlaxoSmithKline LLC, priority 1998, published 2017).

The conditions of this data set: amorphous material as disclosed in WO96/01833.

With `CC(C)Nc1nc2cc(Cl)c(Cl)cc2n1[C@H]1O[C@@H](CO)[C@H](O)[C@@H]1O` [Form 1263W94, 5,6-dichloro-2-(isopropylamino)-1-(β-L-ribofuranosyl)-1H-benzimidazole], the hygroscopicity entry is “hygroscopic”.
